From patent US9464086B2, “Crystalline forms of N,N-dicyclopropyl-4-(1,5-dimethyl-1 H-pyrazol-3-ylamino)-6-ethyl-1-methyl-1,6-dihydroimidazo[4,5-D]pyrrolo[2,3-B]pyridine-7-carboxamide for the treatment of myeloproliferative disorders” (BRISTOL-MYERS SQUIBB COMPANY, priority 2013, dated 2016)

Columns and labels:
Format in all cases: physicochemical
[1] = Stability of milled API under high humidity and temperature open dish conditions; conditions: up to 2 weeks, 25° C./60% RH and 40° C./75% RH open
From the text: (§1) As previously noted, the N-2 form was selected due to a number of properties including chemical/physical stability, reproducibility and hygroscopicity.

[2] = Stability on exposure to UV/HIL; conditions: solid form; 4 days
From the text: as §1

[3] = Stability of the crystalline form under accelerated conditions of temperature and humidity; conditions: solid form; up to 4 weeks
From the text: as §1

CCn1c(C(=O)N(C2CC2)C2CC2)cc2c3c(ncn3C)c(Nc3cc(C)n(C)n3)nc21 [Form N-2, N,N-dicyclopropyl-4-(1,5-dimethyl-1H-pyrazol-3-ylamino)-6-ethyl-1-methyl-1,6-dihydroimidazo[4,5-d]pyrrolo[2,3-b]pyridine-7-carboxamide]
stable: stability under high humidity and temperature open dish conditions [1] | stability on exposure to UV/HIL [2] | stability under accelerated conditions of temperature and humidity [3]
